Data from US9227923B2, “Pesticidal carboxamides” (Bayer Intellectual Property GmbH, priority 2009, dated 2016).

Tests used:
Assay type in all cases: in vivo
[1] = system: Tobacco Cutworm (Spodoptera litura) Larvae; assay: Test against tobacco cutworm (Spodoptera litura) larvae, leaf dip; conditions: active compound concentration of 100 ppm, third instar larvae, after 7 days; for pest or weed control at 100 ppm: Spodoptera litura, foliar, 168 h, read-out: insecticidal activity
Procedure, shortened: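 Sweet potato leaves were dipped in the test solution (DMF solvent, polyoxyethylene alkyl phenyl ether emulsifier), air-dried and offered to ten third-instar larvae per dish at 25 °C, with fresh leaves added on days 2 and 4. Mortality was counted at day 7 and expressed as % insecticidal activity (100% = all dead).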

[2] = system: Two-Spotted Spider Mite (Tetranychus Urticae); assay: Test against two-spotted spider mite (Tetranychus urticae), spray; conditions: active compound concentration of 100 ppm; adult mites; after 7 days
Description: (§1) Solvent: 3 parts by weight of dimethylformamide
(§2) Emulsifier: 1 part by weight of polyoxyethylene alkyl phenyl ether

[3] = system: Cucurbit Leaf Beetle (Aulacophora Femoralis); assay: Test against cucurbit leaf beetle (Aulacophora femoralis), leaf dip; conditions: active compound concentration of 100 ppm, second instar larvae, after 7 days; for pest or weed control at 100 ppm: Aulacophora, foliar, 168 h, read-out: insecticidal activity
Method: as §1, §2
Leaves of cucumber were immersed in the test solution at the appropriate concentration, and the leaves were dried in air. The leaves were then put in a plastic cup containing sterilized black soil and five Aulacophora femoralis at second instar larvae were released in the cup. The cups were placed in a temperature-controlled chamber at 25° C. After 7 days, the number of dead larvae was counted, and thus the insecticidal activity was calculated. An insecticidal activity of 100% means that all larvae were killed, whereas an insecticidal activity of 0% means that no larva was killed.

[4] = system: Boophilus microplus; assay: Boophilus microplus test (injection); conditions: for mortality at 0.02 mg: Rhipicephalus microplus, 168 h, read-out: activity (mortality in %; 100% means that all eggs are infertile); for activity (mortality in %; 100% means that all eggs are infertile): application rate of 20 μg/animal, injection, after 7 days
Method: Solvent: dimethyl sulfoxide
Five adult engorged female ticks (Boophilus microplus) are injected with […] compound solution into the abdomen. Ticks are transferred into replica plates and incubated in a climate chamber for a period of time. Egg deposition of fertile eggs is monitored.
After 7 days mortality in % is determined. 100% means that all eggs are infertile; 0% means that all eggs are fertile. […]

[5] = system: Lucilia cuprina 1st instar larvae; assay: whole plant or invertebrate; conditions: application rate of 100 ppm; after 48 hrs
Method: species: Lucilia cuprina 1st instar larvae (age 24 hrs)
solvent: dimethyl sulfoxide
Serial dilutions are made to obtain the desired rates. Approximately 20 Lucilia cuprina 1st instar larvae are transferred into a test tube containing 1 cm^3 of minced horse meat and 0.5 ml aqueous dilution of test compound. After 48 hrs percentage of larval mortality are recorded. 100% efficacy=all larvae are killed, […].

Compound `CCc1cc(C(F)(C(F)(F)F)C(F)(F)F)cc(C)c1NC(=O)c1ccc(CNC(=O)CC(F)(F)F)c(Cl)c1` [Compound 5-81] has an insecticidal activity [1] of 100%, an acaricidal activity [2] of 100% and an insecticidal activity [3] of 100%.
With `CCc1cc(C(F)(C(F)(F)F)C(F)(F)F)cc(C)c1NC(=O)c1ccc(CNC(C)=O)c(Br)c1` [Compound 5-85] the insecticidal activity [1] was 100%, the acaricidal activity [2] was 100% and the insecticidal activity [3] was 100%.
With `CCC(=O)NCc1ccc(C(=O)Nc2c(C)cc(C(F)(C(F)(F)F)C(F)(F)F)cc2CC)cc1Br` [Compound 5-86] the insecticidal activity [1] was 100%, the acaricidal activity [2] was 100% and the insecticidal activity [3] was 100%.
Work on `CCc1cc(C(F)(C(F)(F)F)C(F)(F)F)cc(C)c1NC(=O)c1ccc(CNC(=O)CC(F)(F)F)c(Br)c1` [Compound 5-89] yielded an insecticidal activity [1] of 100%, an acaricidal activity [2] of 100% and an insecticidal activity [3] of 100%.
Work on `CCc1cc(C(F)(C(F)(F)F)C(F)(F)F)cc(C)c1NC(=O)c1ccc(CNC(=O)c2cccnc2F)c(Br)c1` [Compound 5-93] yielded an insecticidal activity [1] of 100%, an acaricidal activity [2] of 100% and an insecticidal activity [3] of 100%.
`CCc1cc(C(F)(C(F)(F)F)C(F)(F)F)cc(C)c1NC(=O)c1ccc(CNC(=O)CC(F)(F)F)c(C)c1` [Compound 5-102] showed a pest or weed control at 100 ppm [1] of 100%, an acaricidal activity [2] of 100% and a pest or weed control at 100 ppm [3] of 100%. It also gave a mortality at 0.02 mg [4] of 100%.
With `CCc1cc(C(F)(C(F)(F)F)C(F)(F)F)cc(C)c1NC(=O)c1ccc(CNC(=O)c2cccnc2F)c(C)c1` [Compound 5-103] the insecticidal activity [1] was 100%, the acaricidal activity [2] was 100% and the insecticidal activity [3] was 100%.
With `CCc1cc(C(F)(C(F)(F)F)C(F)(F)C(F)(F)F)cc(C)c1NC(=O)c1ccc(CNC(=O)C2CC2)c(F)c1` (centres unmarked) [Compound 5-146] the insecticidal activity [1] was 100% and the “activity (percentage of larval mortality)” value [5] was 95%.
For `CCc1cc(C(F)(C(F)(F)F)C(F)(F)C(F)(F)F)cc(C)c1NC(=O)c1ccc(CNC(=O)CC(F)(F)F)c(F)c1` (centres unmarked) [Compound 5-148], the insecticidal activity [1] was 100%, the acaricidal activity [2] was 100% and the insecticidal activity [3] was 100%.
`CCc1cc(C(F)(C(F)(F)F)C(F)(F)C(F)(F)F)cc(C)c1NC(=O)c1ccc(CNC(C)=O)c(Cl)c1` (centres unmarked) [Compound 5-150] showed an insecticidal activity [1] of 100%, an acaricidal activity [2] of 100% and an insecticidal activity [3] of 100%.
Compound `CCC(=O)NCc1ccc(C(=O)Nc2c(C)cc(C(F)(C(F)(F)F)C(F)(F)C(F)(F)F)cc2CC)cc1Cl` (centres unmarked) [Compound 5-151] has an insecticidal activity [1] of 100%, an acaricidal activity [2] of 100% and an insecticidal activity [3] of 100%.
`CCc1cc(C(F)(C(F)(F)F)C(F)(F)C(F)(F)F)cc(C)c1NC(=O)c1ccc(CNC(=O)CC(F)(F)F)c(Cl)c1` (centres unmarked) [Compound 5-154] gave an insecticidal activity [1] of 100%, an acaricidal activity [2] of 100% and an insecticidal activity [3] of 100%.
Work on `CCc1cc(C(F)(C(F)(F)F)C(F)(F)C(F)(F)F)cc(C)c1NC(=O)c1ccc(CNC(=O)c2cccnc2F)c(Cl)c1` (centres unmarked) [Compound 5-155] yielded an insecticidal activity [1] of 100%, an acaricidal activity [2] of 100% and an insecticidal activity [3] of 100%.
In the case of `CCc1cc(C(F)(C(F)(F)F)C(F)(F)C(F)(F)F)cc(C)c1NC(=O)c1ccc(CNC(C)=O)c(Br)c1` (centres unmarked) [Compound 5-157], the insecticidal activity [1] is reported as 100%, the acaricidal activity [2] is reported as 100% and the insecticidal activity [3] is reported as 100%.
Compound `CCc1cc(C(F)(C(F)(F)F)C(F)(F)C(F)(F)F)cc(C)c1NC(=O)c1ccc(CNC(=O)c2cccnc2Cl)c(Br)c1` (centres unmarked) [Compound 5-175] has an insecticidal activity [1] of 100%, an acaricidal activity [2] of 100% and an insecticidal activity [3] of 100%.
With `CCc1cc(C(F)(C(F)(F)F)C(F)(F)C(F)(F)F)cc(C)c1NC(=O)c1ccc(CNC(C)=O)c(I)c1` (centres unmarked) [Compound 5-194] the insecticidal activity [1] was 100% and the “activity (percentage of larval mortality)” value [5] was 95%.
In the case of `Cc1cc(C(F)(C(F)(F)F)C(F)(F)C(F)(F)F)cc(C)c1NC(=O)c1ccc(CNC(=O)CC(F)(F)F)c(F)c1F` (centres unmarked) [Compound 5-213], the insecticidal activity [1] is reported as 100%, the acaricidal activity [2] is reported as 100% and the insecticidal activity [3] is reported as 100%.
Work on `CCc1cc(C(F)(C(F)(F)F)C(F)(F)Br)cc(C)c1NC(=O)c1ccc(CNC(C)=O)c(Cl)c1` (centres unmarked) [Compound 5-219] yielded an insecticidal activity [1] of 100%, an acaricidal activity [2] of 100% and an insecticidal activity [3] of 100%.
`CCC(=O)NCc1ccc(C(=O)Nc2c(C)cc(C(F)(C(F)(F)F)C(F)(F)Br)cc2CC)cc1Cl` (centres unmarked) [Compound 5-220] gave an insecticidal activity [1] of 100%, an acaricidal activity [2] of 100% and an insecticidal activity [3] of 100%.
`CCc1cc(C(F)(C(F)(F)F)C(F)(F)Br)cc(C)c1NC(=O)c1ccc(CNC(=O)CC(F)(F)F)c(Cl)c1` (centres unmarked) [Compound 5-221] was tested, and the insecticidal activity [1] was 100%, the acaricidal activity [2] was 100% and the insecticidal activity [3] was 100%.
`O=C(CC1CC1)NCc1ccc(C(=O)Nc2c(Cl)cc(C(F)(C(F)(F)F)C(F)(F)F)cc2Cl)cc1` [Compound 5-225] showed an insecticidal activity [1] of 100%, an acaricidal activity [2] of 100% and an insecticidal activity [3] of 100%.
For `CC(=O)NCc1ccc(C(=O)Nc2c(C)cc(C(F)(C(F)(F)F)C(F)(F)F)cc2OC(F)F)cc1Cl` [Compound 5-294], the insecticidal activity [1] was 100%, the acaricidal activity [2] was 100% and the insecticidal activity [3] was 100%.
For `CCC(=O)NCc1ccc(C(=O)Nc2c(C)cc(C(F)(C(F)(F)F)C(F)(F)F)cc2OC(F)F)cc1Cl` [Compound 5-295], the insecticidal activity [1] was 100%, the acaricidal activity [2] was 100% and the insecticidal activity [3] was 100%.
In the case of `Cc1cc(C(F)(C(F)(F)F)C(F)(F)F)cc(OC(F)F)c1NC(=O)c1ccc(CNC(=O)CC(F)(F)F)c(Cl)c1` [Compound 5-296], the insecticidal activity [1] is reported as 100%, the acaricidal activity [2] is reported as 100% and the insecticidal activity [3] is reported as 100%.
Work on `CCc1cc(C(F)(C(F)(F)F)C(F)(F)Br)cc(C)c1NC(=O)c1ccc(CNC(=O)CSC)c(Cl)c1` (centres unmarked) [Compound 5-320] yielded an insecticidal activity [1] of 100%, an acaricidal activity [2] of 100% and an insecticidal activity [3] of 100%.
In the case of `CSCC(=O)NCc1ccc(C(=O)Nc2c(Cl)cc(C(F)(C(F)(F)F)C(F)(F)C(F)(F)F)cc2Cl)cc1Cl` (centres unmarked) [Compound 5-331], the insecticidal activity [1] is reported as 100%, the acaricidal activity [2] is reported as 100% and the insecticidal activity [3] is reported as 100%.
`Cc1cc(C(F)(C(F)(F)F)C(F)(F)F)cc(OC(F)F)c1NC(=O)c1ccc(CNC(=O)C2CC2)c(Cl)c1` [Compound 5-341] was tested, and the insecticidal activity [1] was 100%, the acaricidal activity [2] was 100% and the insecticidal activity [3] was 100%.
For `CCc1cc(C(F)(C(F)(F)F)C(F)(F)F)cc(C)c1NC(=O)c1ccc(CNC(=O)CC2CC2)cn1` [Compound 7-5], the insecticidal activity [1] was 100%, the insecticidal activity [3] was 100% and the “activity (mortality in %; 100% means that all eggs are infertile)” value [4] was 95%.
With `CCc1cc(C(F)(C(F)(F)F)C(F)(F)F)cc(C)c1NC(=O)c1ccc(C(C)NC(C)=O)cc1` (centres unmarked) [Compound 9-2, 4-(1-acetamidoethyl)-N-[2-ethyl-4-(1,1,1,2,3,3,3-heptafluoropropan-2-yl)-6-methylphenyl]benzamide] the pest or weed control at 100 ppm [1] was 100%, the acaricidal activity [2] was 100% and the pest or weed control at 100 ppm [3] was 100%.
`CCC(=O)NC(C)c1ccc(C(=O)Nc2c(C)cc(C(F)(C(F)(F)F)C(F)(F)F)cc2CC)cc1` (centres unmarked) [Compound 9-3] was tested, and the insecticidal activity [1] was 100%, the acaricidal activity [2] was 100% and the insecticidal activity [3] was 100%.
Work on `CCC(=O)NC1CCc2cc(C(=O)Nc3c(C)cc(C(F)(C(F)(F)F)C(F)(F)F)cc3CC)ccc21` (centres unmarked) [Compound 10-3] yielded an insecticidal activity [1] of 100%, an acaricidal activity [2] of 100% and an insecticidal activity [3] of 100%.
With `CCc1cc(C(F)(C(F)(F)F)C(F)(F)F)cc(C)c1NC(=O)c1ccc2c(c1)CCC2NC(=O)CC(F)(F)F` (centres unmarked) [Compound 10-6] the insecticidal activity [1] was 100%, the acaricidal activity [2] was 100% and the insecticidal activity [3] was 100%.
With `CCc1cc(C(F)(C(F)(F)F)C(F)(F)F)cc(C)c1NC(=O)c1ccc(-n2cncn2)c(CNC(=O)OC(C)(C)C)c1` [Compound 12-1, tert-butyl[5-{[2-ethyl-4-(1,1,1,2,3,3,3-heptafluoropropan-2-yl)-6-methylphenyl]carbamoyl}-2-(1H-1,2,4-triazol-1-yl)benzyl]carbamate] the pest or weed control at 100 ppm [1] was 100% and the mortality at 0.02 mg [4] was 100%.
`Cc1cc(C(F)(C(F)(F)F)C(F)(F)F)cc(OC(F)F)c1NC(=O)c1ccc(C#N)cc1Cl` [Compound I-12] gave an insecticidal activity [1] of 100%, an acaricidal activity [2] of 100% and an insecticidal activity [3] of 100%.
For `CCc1cc(C(F)(C(F)(F)F)C(F)(F)F)cc(C)c1NC(=O)c1ccc(C#N)nc1` [Compound J-1], the “activity (mortality in %; 100% means that all eggs are infertile)” value [4] was 95%.
